Reference: ChEMBL document CHEMBL3880430, “Arginine derivatives with NP-1 antagonistic activity” (2012)
Calls of active or inactive are those of the source. The calls are words filed in the database; no cut-off is given here.

Columns and labels:
[1] = Cytotoxicity in human A549 cells assessed as decrease in cell viability after 44 hrs by XTT assay; type: functional, cell-based; details: A549, 44 h
[2] = target: Neuropilin-1 (Homo sapiens) (UniProt O14786); assay: Inhibition of neuropilin-1 in human DU145 cells assessed as decrease in cell adhesion to extracellular matrix proteins at 10 to 100 uM after 1.5 hrs by calcein-AM dye based fluorescence assay; details: DU-145
Chain of Neuropilin-1 (Homo sapiens) (O14786 whole entry): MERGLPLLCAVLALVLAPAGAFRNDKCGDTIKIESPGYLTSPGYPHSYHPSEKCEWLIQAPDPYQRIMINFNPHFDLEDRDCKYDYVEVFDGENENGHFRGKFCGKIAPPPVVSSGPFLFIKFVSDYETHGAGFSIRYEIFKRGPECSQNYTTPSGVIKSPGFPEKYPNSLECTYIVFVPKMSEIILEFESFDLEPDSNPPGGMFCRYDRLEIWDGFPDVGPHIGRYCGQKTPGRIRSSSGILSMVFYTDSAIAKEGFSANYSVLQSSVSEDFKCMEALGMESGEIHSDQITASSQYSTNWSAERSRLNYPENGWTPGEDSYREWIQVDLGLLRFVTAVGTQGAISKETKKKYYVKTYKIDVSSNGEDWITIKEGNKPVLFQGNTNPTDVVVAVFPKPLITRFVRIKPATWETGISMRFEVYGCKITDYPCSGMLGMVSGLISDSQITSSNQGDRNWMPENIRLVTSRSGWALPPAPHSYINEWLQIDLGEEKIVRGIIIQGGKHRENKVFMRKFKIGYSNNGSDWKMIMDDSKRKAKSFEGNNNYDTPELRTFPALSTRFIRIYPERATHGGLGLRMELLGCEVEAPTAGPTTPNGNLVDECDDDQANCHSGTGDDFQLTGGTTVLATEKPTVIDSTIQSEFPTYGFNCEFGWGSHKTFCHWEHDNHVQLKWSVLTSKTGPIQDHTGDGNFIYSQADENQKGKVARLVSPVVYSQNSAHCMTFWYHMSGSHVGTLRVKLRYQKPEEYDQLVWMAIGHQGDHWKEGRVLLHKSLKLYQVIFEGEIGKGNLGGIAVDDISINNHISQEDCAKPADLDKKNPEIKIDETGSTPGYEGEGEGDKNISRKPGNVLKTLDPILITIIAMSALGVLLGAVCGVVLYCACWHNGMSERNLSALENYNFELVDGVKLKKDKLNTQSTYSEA

[3] = target: Neuropilin-1 (Homo sapiens) (UniProt O14786); assay: Inhibition of neuropilin-1 in human A549 cells assessed as decrease in cell migration at 10 to 100 uM after 4 hrs by trans-well assay; type: cell-based
[4] = target: Neuropilin-1 (Homo sapiens) (UniProt O14786); assay: Inhibition of neuropilin-1 in human ACHN cells assessed as decrease in cell migration at 10 to 100 uM after 4 hrs by trans-well assay; type: cell-based

Structure (SMILES)	IC50 [1] [µM]	other results
Cc1nn(C)c(Cl)c1CNc1cccc(S(=O)(=O)Nc2ccsc2C(=O)N[C@@H](CCCNC(=N)N)C(=O)O)c1	< 20	–
N=C(N)NCCC[C@H](NC(=O)c1sccc1NS(=O)(=O)c1ccc(N)cc1)C(=O)O	< 20	inhibition [2]: Active; inhibition [3]: Active; inhibition [4]: Active
N=C(N)NC(=O)CC[C@H](NC(=O)c1sccc1NS(=O)(=O)c1ccccc1[N+](=O)[O-])C(=O)O	< 20	–
CC(=O)Nc1ccc(S(=O)(=O)Nc2ccsc2C(=O)N[C@@H](CCCNC(=N)N)C(=O)O)cc1	< 20	–
Cc1ccc2nsnc2c1S(=O)(=O)Nc1ccsc1C(=O)N[C@@H](CCCNC(=N)N)C(=O)O	< 20	–
Cc1nc(CNc2cccc(S(=O)(=O)Nc3ccsc3C(=O)N[C@@H](CCCNC(=N)N)C(=O)O)c2)c(C)o1	< 20	–
Cc1noc(C)c1-c1cc2c(c(S(=O)(=O)Nc3ccsc3C(=O)N[C@@H](CCCNC(=N)N)C(=O)O)c1)OCC2	< 20	–
N=C(N)NCCC[C@H](NC(=O)c1sccc1NS(=O)(=O)c1cc2ccccc2o1)C(=O)O	< 20	–
N=C(N)NCCC[C@H](NC(=O)c1sccc1NS(=O)(=O)c1ccccc1[N+](=O)[O-])C(=O)O	< 20	–
Cc1noc(C)c1-c1cccc(S(=O)(=O)Nc2ccsc2C(=O)N[C@@H](CCCNC(=N)N)C(=O)O)c1	< 20	–
N=C(N)NCCC[C@H](NC(=O)c1sccc1NS(=O)(=O)c1cccc(CCCN)c1)C(=O)O	< 20	–
CN1CCOc2cc(-c3cc4c(c(S(=O)(=O)Nc5ccsc5C(=O)N[C@@H](CCCNC(=N)N)C(=O)O)c3)OCC4)cnc21	< 20	–
N=C(N)NCCC[C@H](NC(=O)c1sccc1NS(=O)(=O)c1cccc(C#CCN)c1)C(=O)O	< 20	–
N=C(N)NCCC[C@H](NC(=O)c1sccc1NS(=O)(=O)c1ccccc1N)C(=O)O	< 20	–
N=C(N)NCCC[C@H](NC(=O)c1sccc1NS(=O)(=O)c1cccc(NCc2ccccn2)c1)C(=O)O	< 20	–
N=C(N)NCCC[C@H](NC(=O)c1sccc1NS(=O)(=O)c1cccc(CCc2cccnc2)c1)C(=O)O	< 20	–
N=C(N)NCCC[C@H](NC(=O)c1sccc1NS(=O)(=O)c1cc2ccccc2s1)C(=O)O	< 20	–
Cc1cc(CNc2cccc(S(=O)(=O)Nc3ccsc3C(=O)N[C@@H](CCCNC(=N)N)C(=O)O)c2)n(C)n1	< 20	–
N=C(N)NCCC[C@H](NC(=O)c1sccc1NS(=O)(=O)c1cccc(N)c1)C(=O)O	< 20	–
